How the values were obtained:
[1] = 101 kPa, Liquid
[2] = xn = mol fraction of the nth substance listed; details: 101 kPa, Liquid

CCCCCCCCCCCO [1-undecanol]
[1]
Details	mass density [kg/m3]	viscosity [mPa·s]
293.15 K	832.5	17.18
298.15 K	829	14.02

CCCCCCCCCCCO [1-undecanol] + CCCO
[2]
Details	mass density, 293.15 K [kg/m3]	mass density, 298.15 K [kg/m3]	viscosity, 293.15 K [mPa·s]	viscosity, 298.15 K [mPa·s]
x2 = 0	832.5	829	17.18	14.02
x2 = 0.1283	830.7	827.3	15.08	12.37
x2 = 0.2079	829.6	826.2	13.44	11.11
x2 = 0.3145	827.9	824.4	11.56	9.558
x2 = 0.4057	826.1	822.6	10.06	8.394
x2 = 0.5075	824	820.5	8.321	6.998
x2 = 0.6096	821.3	817.7	6.814	5.804
x2 = 0.6937	818.7	815.1	5.634	4.823
x2 = 0.7922	815	811.4	4.399	3.808
x2 = 0.8907	810.3	806.5	3.274	2.857

CCCCCCCO [heptan-1-ol]
[1]
Details	mass density [kg/m3]	viscosity [mPa·s]
293.15 K	822.2	7.104
298.15 K	818.7	5.993

CCCCCCCO [heptan-1-ol] + CCCCCCCCCCCO
[2], x1 = 1
Details	mass density [kg/m3]	viscosity [mPa·s]
293.15 K	822.2	7.104
298.15 K	818.7	5.993

CCCCCCCO [heptan-1-ol] + CCCCCCCCCO
[2], x1 = 1
Details	mass density [kg/m3]	viscosity [mPa·s]
293.15 K	822.2	7.104
298.15 K	818.7	5.993

CCCCCCCO [heptan-1-ol] + CCCCCO
[2]
Details	mass density, 293.15 K [kg/m3]	mass density, 298.15 K [kg/m3]	viscosity, 293.15 K [mPa·s]	viscosity, 298.15 K [mPa·s]
x2 = 0	822.2	818.7	7.104	5.993
x2 = 0.123	821.4	818	6.696	5.692
x2 = 0.2117	820.8	817.4	6.374	5.408
x2 = 0.3131	820.2	816.7	6.079	5.158
x2 = 0.4177	819.4	815.9	5.758	4.899
x2 = 0.5088	818.8	815.3	5.421	4.652
x2 = 0.5897	818.2	814.7	5.177	4.431
x2 = 0.6996	817.3	813.8	4.887	4.189
x2 = 0.7885	816.5	812.9	4.651	3.997
x2 = 0.8909	815.6	812	4.287	3.717

CCCCCCCO [heptan-1-ol] + CCCO
[2]
Details	mass density, 293.15 K [kg/m3]	mass density, 298.15 K [kg/m3]	viscosity, 293.15 K [mPa·s]	viscosity, 298.15 K [mPa·s]
x2 = 0	822.2	818.7	7.104	5.993
x2 = 0.09	821.2	817.7	6.596	5.614
x2 = 0.1795	820.2	816.7	6.08	5.158
x2 = 0.3279	818.2	814.6	5.288	4.519
x2 = 0.4103	816.9	813.3	4.862	4.174
x2 = 0.5058	815.3	811.7	4.282	3.714
x2 = 0.6106	813.5	809.8	3.825	3.342
x2 = 0.6991	811.6	807.9	3.443	3.009
x2 = 0.7989	809.3	805.6	3.011	2.634
x2 = 0.8882	807	803.2	2.643	2.34

CCCCCCCCCO [nonan-1-ol]
[1]
Details	mass density [kg/m3]	viscosity [mPa·s]
293.15 K	827.9	11.68
298.15 K	824.4	9.671

CCCCCCCCCO [nonan-1-ol] + CCCCCCCCCCCO
[2], x1 = 1
Details	mass density [kg/m3]	viscosity [mPa·s]
293.15 K	827.9	11.68
298.15 K	824.4	9.671

CCCCCCCCCO [nonan-1-ol] + CCCCCCCO
[2]
Details	mass density, 293.15 K [kg/m3]	mass density, 298.15 K [kg/m3]	viscosity, 293.15 K [mPa·s]	viscosity, 298.15 K [mPa·s]
x2 = 0	827.9	824.4	11.68	9.671
x2 = 0.1181	827	823.6	11.16	9.249
x2 = 0.2245	826.6	823.2	10.56	8.777
x2 = 0.307	826.2	822.8	10.02	8.328
x2 = 0.4093	825.7	822.3	9.551	7.951
x2 = 0.5045	825.1	821.7	9.146	7.628
x2 = 0.5969	824.7	821.2	8.61	7.211
x2 = 0.6924	824.2	820.7	8.347	6.976
x2 = 0.7866	823.6	820.2	7.968	6.662
x2 = 0.8883	823	819.5	7.439	6.266

CCCCCCCCCO [nonan-1-ol] + CCCCCO
[2]
Details	mass density, 293.15 K [kg/m3]	mass density, 298.15 K [kg/m3]	viscosity, 293.15 K [mPa·s]	viscosity, 298.15 K [mPa·s]
x2 = 0	827.9	824.4	11.68	9.671
x2 = 0.1155	826.6	823.1	10.72	8.891
x2 = 0.2155	825.6	822.2	9.71	8.083
x2 = 0.3161	824.5	821.1	8.734	7.313
x2 = 0.4052	823.6	820.1	8.071	6.815
x2 = 0.5066	822.4	818.9	7.27	6.128
x2 = 0.6079	821	817.5	6.582	5.55
x2 = 0.7036	819.6	816.1	5.898	5.017
x2 = 0.7935	818.2	814.7	5.192	4.473
x2 = 0.8913	816.6	813	4.631	3.976

CCCCCCCCCO [nonan-1-ol] + CCCO
[2]
Details	mass density, 293.15 K [kg/m3]	mass density, 298.15 K [kg/m3]	viscosity, 293.15 K [mPa·s]	viscosity, 298.15 K [mPa·s]
x2 = 0	827.9	824.4	11.68	9.671
x2 = 0.0808	826.5	823.1	10.86	9.007
x2 = 0.2286	824.6	821.2	9.037	7.55
x2 = 0.3296	823.1	819.6	7.921	6.701
x2 = 0.4104	821.7	818.2	7.097	6.002
x2 = 0.5176	819.5	816	6.051	5.147
x2 = 0.6051	817.6	814	5.268	4.513
x2 = 0.6801	815.5	811.9	4.501	3.904
x2 = 0.7961	811.9	808.3	3.583	3.129
x2 = 0.8945	808.3	804.5	2.9	2.554

CCCCCO [pentan-1-ol]
[1]
Details	mass density [kg/m3]	viscosity [mPa·s]
293.15 K	814.6	4.029
298.15 K	811	3.494

CCCCCO [pentan-1-ol] + CCCCCCCCCCCO
[2], x1 = 1
Details	mass density [kg/m3]	viscosity [mPa·s]
293.15 K	814.6	4.029
298.15 K	811	3.494

CCCCCO [pentan-1-ol] + CCCCCCCCCO
[2], x1 = 1
Details	mass density [kg/m3]	viscosity [mPa·s]
293.15 K	814.6	4.029
298.15 K	811	3.494

CCCCCO [pentan-1-ol] + CCCCCCCO
[2], x1 = 1
Details	mass density [kg/m3]	viscosity [mPa·s]
293.15 K	814.6	4.029
298.15 K	811	3.494

CCCCCO [pentan-1-ol] + CCCO
[2]
Details	mass density, 293.15 K [kg/m3]	mass density, 298.15 K [kg/m3]	viscosity, 293.15 K [mPa·s]	viscosity, 298.15 K [mPa·s]
x2 = 0	814.6	811	4.029	3.494
x2 = 0.0959	813.7	810.1	3.825	3.325
x2 = 0.2143	812.8	809.1	3.584	3.126
x2 = 0.2969	812	808.4	3.446	3.008
x2 = 0.4097	810.9	807.2	3.214	2.828
x2 = 0.5053	809.9	806.2	3.072	2.695
x2 = 0.5963	809	805.2	2.908	2.537
x2 = 0.6924	807.8	804	2.758	2.402
x2 = 0.7892	806.6	802.8	2.582	2.283
x2 = 0.8797	805.4	801.5	2.442	2.126

CCCO [propan-1-ol] + CCCCCCCCCCCO
[2], x1 = 1
Details	mass density [kg/m3]	viscosity [mPa·s]
293.15 K	803.5	2.272
298.15 K	799.6	1.966

CCCO [propan-1-ol] + CCCCCCCCCO
[2], x1 = 1
Details	mass density [kg/m3]	viscosity [mPa·s]
293.15 K	803.5	2.272
298.15 K	799.6	1.966

CCCO [propan-1-ol] + CCCCCCCO
[2], x1 = 1
Details	mass density [kg/m3]	viscosity [mPa·s]
293.15 K	803.5	2.272
298.15 K	799.6	1.966

CCCO [propan-1-ol] + CCCCCO
[2], x1 = 1
Details	mass density [kg/m3]	viscosity [mPa·s]
293.15 K	803.5	2.272
298.15 K	799.6	1.966

Reference: the NIST ThermoML archive (doi:10.1021/je800497u)
